Results reported in PubChem BioAssay (NCI).
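Where inhibition never reached the appropriate level, the endpoint shown equals the highest concentration tested. Otherwise, values were interpolated linearly from a five-concentration, 48-hour dose response in 96-well plates. GI50 is the concentration that inhibits growth by half. TGI marks complete inhibition of growth.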

Columns and labels:
Test in all cases: NCI tumour cell line growth inhibition, 48 h
[1] = system: SF-268 CNS
[2] = system: DU-145 prostate
[3] = system: HOP-62 NSCLC
[4] = system: HL-60(TB) leukemia
[5] = system: PC-3 prostate
[6] = system: OVCAR-4 ovarian
[7] = system: MCF7 breast
[8] = system: COLO 205 colon
[9] = system: SK-MEL-5 melanoma
[10] = system: OVCAR-8 ovarian
[11] = system: A498 renal
[12] = system: SK-MEL-28 melanoma
[13] = system: UO-31 renal
[14] = system: M14 melanoma
[15] = system: UACC-62 melanoma
[16] = system: HCT-15 colon
[17] = system: ACHN renal
[18] = system: RXF 393 renal
[19] = system: NCI/ADR-RES ovarian
[20] = system: TK-10 renal
[21] = system: SK-OV-3 ovarian
[22] = system: U251 CNS
[23] = system: NCI-H460 lung
[24] = system: UACC-257 melanoma
[25] = system: SR leukemia
[26] = system: NCI-H23 lung
[27] = system: SF-295 CNS
[28] = system: NCI-H226 lung
[29] = system: MOLT-4 leukemia
[30] = system: BT-549 breast
[31] = system: HOP-92 NSCLC
[32] = system: KM12 colon
[33] = system: SK-MEL-2 melanoma
[34] = system: K-562 leukemia
[35] = system: MDA-MB-231 breast
[36] = system: 786-0 renal
[37] = system: HCC-2998 colon
[38] = system: EKVX NSCLC
[39] = system: SNB-75 CNS
[40] = system: SW-620 colon
[41] = system: NCI-H522 lung
[42] = system: HS 578T breast
[43] = system: LOX IMVI melanoma
[44] = system: IGROV1 ovarian
[45] = system: SF-539 CNS
[46] = system: RPMI-8226 leukemia
[47] = system: A549 NSCLC
[48] = system: SN12C renal
[49] = system: MDA-MB-435
[50] = system: OVCAR-3 ovarian
[51] = system: HCT-116 colon
[52] = system: MALME-3M melanoma
[53] = system: T-47D breast
[54] = system: CAKI-1 renal
[55] = system: CCRF-CEM leukemia
[56] = system: HT29 colon
[57] = system: OVCAR-5 ovarian
[58] = system: SNB-19 CNS

Compound: COc1cc(O)c2c(=O)cc(C3(O)C=CC(=O)C=C3)oc2c1
- TGI [1]: 1.72 µM
- TGI [2]: 3.18 µM
- TGI [3]: 0.486 µM
- TGI [4]: 2.75 µM
- TGI [5]: 1.37 µM
- TGI [6]: 3.35 µM
- TGI [7]: 0.58 µM
- TGI [8]: 0.906 µM
- TGI [9]: 0.234 µM
- TGI [10]: 0.586 µM
- TGI [11]: 11.1 µM
- TGI [12]: 0.578 µM
- TGI [13]: 0.993 µM
- TGI [14]: 2.37 µM
- TGI [15]: 0.786 µM
- TGI [16]: 1.11 µM
- TGI [17]: 0.22 µM
- TGI [18]: 17.7 µM
- TGI [19]: 18.9 µM
- TGI [20]: 0.376 µM
- TGI [21]: 13.8 µM
- TGI [22]: 0.0808 µM
- TGI [23]: 2.06 µM
- TGI [24]: 1.05 µM
- TGI [25]: 0.126 µM
- TGI [26]: 2.46 µM
- TGI [27]: 2.09 µM
- TGI [28]: 1.73 µM
- TGI [29]: > 100 µM
- TGI [30]: 1.49 µM
- TGI [31]: 0.493 µM
- TGI [32]: 0.447 µM
- TGI [33]: 2.66 µM
- TGI [34]: 11.1 µM
- TGI [35]: 0.789 µM
- TGI [36]: 0.876 µM
- TGI [37]: 1.12 µM
- TGI [38]: 5.79 µM
- TGI [39]: 3.06 µM
- TGI [40]: 0.0663 µM
- TGI [41]: 0.113 µM
- TGI [42]: 8.38 µM
- TGI [43]: 0.464 µM
- TGI [44]: 0.0328 µM

Compound: Cc1nc(N)sc1C(=O)Nc1cc(C(=O)NCCCN(C)C)n(C)c1
- GI50 [1]: > 100 µM
- TGI [1]: > 100 µM
- GI50 [2]: 67.3 µM
- TGI [2]: > 100 µM
- GI50 [3]: > 100 µM
- TGI [3]: > 100 µM
- GI50 [4]: > 100 µM
- TGI [4]: > 100 µM
- GI50 [5]: > 100 µM
- TGI [5]: > 100 µM
- GI50 [6]: > 100 µM
- TGI [6]: > 100 µM
- GI50 [7]: > 100 µM
- TGI [7]: > 100 µM
- GI50 [8]: > 100 µM
- TGI [8]: > 100 µM
- GI50 [9]: > 100 µM
- TGI [9]: > 100 µM
- GI50 [10]: > 100 µM
- TGI [10]: > 100 µM
- GI50 [11]: > 100 µM
- TGI [11]: > 100 µM
- GI50 [45]: > 100 µM
- TGI [45]: > 100 µM
- GI50 [12]: 65.4 µM
- TGI [12]: > 100 µM
- GI50 [13]: > 100 µM
- TGI [13]: > 100 µM
- GI50 [46]: 60.1 µM
- TGI [46]: > 100 µM
- GI50 [15]: > 100 µM
- TGI [15]: > 100 µM
- GI50 [16]: > 100 µM
- TGI [16]: > 100 µM
- GI50 [17]: > 100 µM
- TGI [17]: > 100 µM
- GI50 [18]: > 100 µM
- TGI [18]: > 100 µM
- GI50 [47]: > 100 µM
- TGI [47]: > 100 µM
- GI50 [19]: > 100 µM
- TGI [19]: > 100 µM
- GI50 [20]: > 100 µM
- TGI [20]: > 100 µM
- GI50 [48]: > 100 µM
- TGI [48]: > 100 µM
- GI50 [21]: > 100 µM
- TGI [21]: > 100 µM
- GI50 [22]: > 100 µM
- TGI [22]: > 100 µM
- GI50 [23]: > 100 µM
- TGI [23]: > 100 µM
- GI50 [49]: > 100 µM
- TGI [49]: > 100 µM
- GI50 [24]: > 100 µM
- TGI [24]: > 100 µM
- GI50 [50]: > 100 µM
- TGI [50]: > 100 µM
- GI50 [25]: > 100 µM
- TGI [25]: > 100 µM
- GI50 [26]: > 100 µM
- TGI [26]: > 100 µM
- GI50 [51]: > 100 µM
- TGI [51]: > 100 µM
- GI50 [27]: > 100 µM
- TGI [27]: > 100 µM
- GI50 [28]: > 100 µM
- TGI [28]: > 100 µM
- GI50 [29]: > 100 µM
- TGI [29]: > 100 µM
- GI50 [30]: 76.7 µM
- TGI [30]: > 100 µM
- GI50 [31]: > 100 µM
- TGI [31]: > 100 µM
- GI50 [52]: > 100 µM
- TGI [52]: > 100 µM
- GI50 [32]: > 100 µM
- TGI [32]: > 100 µM
- GI50 [53]: 35.7 µM
- TGI [53]: > 100 µM
- GI50 [33]: > 100 µM
- TGI [33]: > 100 µM
- GI50 [54]: > 100 µM
- TGI [54]: > 100 µM
- GI50 [34]: > 100 µM
- TGI [34]: > 100 µM
- GI50 [35]: > 100 µM
- TGI [35]: > 100 µM
- GI50 [36]: > 100 µM
- TGI [36]: > 100 µM
- GI50 [37]: > 100 µM
- TGI [37]: > 100 µM
- GI50 [55]: > 100 µM
- TGI [55]: > 100 µM
- GI50 [38]: > 100 µM
- TGI [38]: > 100 µM
- GI50 [39]: > 100 µM
- TGI [39]: > 100 µM
- GI50 [40]: > 100 µM
- TGI [40]: > 100 µM
- GI50 [41]: > 100 µM
- TGI [41]: > 100 µM
- GI50 [43]: > 100 µM
- TGI [43]: > 100 µM
- GI50 [56]: > 100 µM
- TGI [56]: > 100 µM
- GI50 [44]: > 100 µM
- TGI [44]: > 100 µM
- GI50 [57]: > 100 µM
- TGI [57]: > 100 µM
- GI50 [58]: > 100 µM
- TGI [58]: > 100 µM
